Measured values from US6660752B2, “2,6-Substituted chroman derivatives useful as beta-3 adrenoreceptor agonists” (Bayer Pharmaceuticals Corporation, priority 2001, dated 2003).
pEC50: −log10 of the molar value.

Molecular target: T1, human beta-3-adrenergic receptor (Homo sapiens, UniProt P13945)
T1 construct: stably express full-length human beta-3-adrenergic receptor; expressed in transfected cells; host or cells: Chinese hamster ovary (CHO) cells
Assay: cAMP production (beta-3 agonist activity) in CHO cells stably expressing human beta-3-adrenergic receptor, cAMP SPA
Assay type: cell-based
Settings: CHO cells expressing full-length human beta-3-adrenergic receptor, 30 min incubation, 10 μM to 3 nM, read-out: Beta-3 Agonistic Activity: Compounds with EC50 values ≦1 μM
How it was run: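 CHO cells stably expressing full-length receptor treated 30 min at 37° C with compounds (10 μM to 3 nM, 3-fold dilutions) in KRP buffer pH 7.4 with […] IBMX and 1% DMSO. Lysed cells assayed for cAMP by SPA; EC50 derived from cAMP concentration-response curves.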

T1 sequence (P13945 whole entry): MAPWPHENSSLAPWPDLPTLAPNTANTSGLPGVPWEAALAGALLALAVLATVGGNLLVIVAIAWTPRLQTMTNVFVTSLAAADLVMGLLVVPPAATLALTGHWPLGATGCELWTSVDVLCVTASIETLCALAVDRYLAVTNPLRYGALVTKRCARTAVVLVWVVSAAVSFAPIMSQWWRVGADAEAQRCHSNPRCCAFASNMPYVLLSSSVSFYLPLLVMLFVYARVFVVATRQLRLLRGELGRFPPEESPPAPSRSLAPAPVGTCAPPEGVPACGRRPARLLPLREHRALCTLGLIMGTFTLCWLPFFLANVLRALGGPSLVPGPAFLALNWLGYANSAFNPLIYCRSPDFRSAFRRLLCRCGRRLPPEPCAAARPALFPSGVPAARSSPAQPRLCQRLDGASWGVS

Question: With COc1ccc(Oc2cc(-c3ccc4c(c3)CC[C@H](CNC[C@H](O)c3cccnc3)O4)ccc2C(=O)O)cc1 [Example 196, 4-[(2R)-2-({[(2R)-2-hydroxy-2-(3-pyridinyl)ethyl]amino}methyl)-3,4-dihydro-2H-chromen-6-yl]-2-(4-methoxyphenoxy)benzoic acid] as the compound, how does the pEC50 read?
Answer: The pEC50 was no less than 6.00.

Question: Nc1ccc([C@@H](O)CNC[C@H]2CCc3cc(-c4ccc(-c5nnn[nH]5)cc4)ccc3O2)cn1 [Example 384, (1R)-1-(6-amino-3-pyridinyl)-2-[({(2R)-6-[4-(1H-tetraazol-5-yl)phenyl]-3,4-dihydro-2H-chromen-2-yl}methyl)amino]ethanol] was tested. Which pEC50 did it give?
Answer: Its pEC50 is no less than 6.00.

Question: O=C(Nc1ccc(Cl)cc1)NS(=O)(=O)c1ccc(-c2ccc3c(c2)CC[C@H](CNC[C@H](O)c2cccnc2)O3)cc1 [Example 340] was tested. Which pEC50 did it give?
Answer: Its pEC50 is no less than 6.00.

Question: With O=C1CCc2cc(NS(=O)(=O)c3ccc(-c4ccc5c(c4)CC[C@H](CNC[C@H](O)c4cccnc4)O5)cc3)ccc21 [Example 258] as the compound, how does the pEC50 read?
Answer: The pEC50 was no less than 6.00.

Question: O=C(O)c1ccc(-c2ccc3c(c2)CC[C@H](CNC[C@@H](O)c2c(F)ccc(Cl)c2F)O3)cc1 [Example 348] was tested. Which pEC50 did it give?
Answer: Its pEC50 is no less than 6.00.

Question: O=C(NS(=O)(=O)c1cccc(-c2ccc3c(c2)CC[C@H](CNC[C@H](O)c2cccnc2)O3)c1)c1cccc(Cl)c1 [Example 302] was tested. Which pEC50 did it give?
Answer: The pEC50 was no less than 6.00.

Question: How did the pEC50 turn out when COc1cc(OC)nc(NS(=O)(=O)c2ccc(-c3ccc4c(c3)CC[C@H](CNC[C@H](O)c3cccnc3)O4)cc2)n1 [Example 267] was run?
Answer: The pEC50 was no less than 6.00.

Question: With CS(=O)(=O)Nc1ccc(-c2ccc3c(c2)CC[C@H](CNC[C@H](O)c2cccnc2)O3)nc1 [Example 321, N-{6-[(2R)-2-({[(2R)-2-hydroxy-2-(3-pyridinyl)ethyl]amino}methyl)-3,4-dihydro-2H-chromen-6-yl]-3-pyridinyl}methanesulfonamide] as the compound, how does the pEC50 read?
Answer: Its pEC50 is no less than 6.00.

Question: How did the pEC50 turn out when O=S(=O)(Nc1ccccn1)c1cccc(-c2ccc3c(c2)CC[C@H](CNC[C@H](O)c2cccnc2)O3)c1 [Example 254] was run?
Answer: The pEC50 was no less than 6.00.

Question: COc1ccc(C(=O)NS(=O)(=O)c2ccc(-c3ccc4c(c3)CC[C@H](CNC[C@H](O)c3cccnc3)O4)cc2)cc1 [Example 300, 4-[(2R)-2-({[(2R)-2-hydroxy-2-(3-pyridinyl)ethyl]amino}methyl)-3,4-dihydro-2H-chromen-6-yl]-N-(4-methoxybenzoyl)benzenesulfonamide] was tested. Which pEC50 did it give?
Answer: Its pEC50 is no less than 6.00.
